Results from a melting point compilation (Tetko et al.; mined from patent text by program, amines drawn as free bases though some values may be those of a salt).

Point of comparison: `O=C(NCc1ccccc1)C1Cc2ccccc2N1S(=O)(=O)c1ccc(-c2ccc(F)cc2)cc1` (stereo not drawn), melting point 65 °C. Against it:
- CCOC(=O)c1ncn(-c2nncs2)c1N — higher, 181 to 183 °C
- Cc1cc(C#N)cc(C(=O)c2c(C(C)C)c(=O)[nH]c(=O)n2C(C)C)c1 — higher, 278 to 280 °C
- O=C(O)Cc1cccc2c(-c3ccc(F)cc3)onc12 — higher, 170 to 171 °C
- CCOC(=O)COc1c(OC)cc(Cl)c2c1CN1CCc3cc(OC)c(OCc4ccccc4)cc3C1C2 (stereo not drawn) — higher, 134 °C
- COc1c(C)c(C(=O)c2ccc3nc(C)oc(=O)c3c2)n2ccccc12 — higher, 218 °C
- O=C(N[C@H](Cc1ccc(CC(F)(F)C(F)(F)F)cc1)[C@@H](O)c1cccc(Cl)c1)c1cccc2c1C=CCCC2 (racemic) — higher, 176 to 177 °C
- CCCOc1ccccc1CCOc1ccc2c(c1)C=C(C(=O)Nc1ccc(CN(C)C3CCOCC3)cc1)CCS2(=O)=O — higher, 161 to 162 °C
- COc1ccccc1CN[C@H]1CCCN[C@H]1c1cc(Br)cc(Br)c1 (relative stereo) — higher, > 240 °C
- Cc1cc(C(=O)O)cc(C)c1OCCNC(=O)C1Cc2ccccc2N1S(=O)(=O)c1ccc(-c2ccc(F)cc2)cc1 (stereo not drawn) — higher, 124 to 128 °C
- Clc1ncnc2[nH]nc(-c3ccccc3)c12 — higher, > 250 °C
- CCOC(=O)c1cc([N+](=O)[O-])c(=O)[nH]c1C(=O)OCC — higher, 144 to 145 °C
- CCOCCOc1nc(NC(C)=O)nc2ccc(Cl)nc12 — higher, 185 °C
- ClCc1nnc2n1-c1ccc(Cl)cc1C(c1ccccc1Cl)=NC2 — higher, 195 to 198 °C
- CCOC(=O)Cc1csc(N=C2SC[C@@H]3Cc4ccccc4CN23)n1 — higher, 105 °C
- CNCCCCCCCCCCCO — lower, 58 °C
- CC(C)(C)OC(=O)Nc1cc(CC#N)c(C#Cc2ccccc2)cc1NC(=O)CC(=O)c1cccc(C#N)c1 — higher, 98 °C
- COc1ccc(NS(=O)(=O)c2cccc3c(N(C)C)cccc23)nn1 — higher, 125 to 127 °C
- CCCONC(=O)c1nc(-c2ccc(Cl)c(OC)c2F)cc(N)c1Cl — higher, 165 to 168 °C
- O=C1CCCC(c2ccc(F)cc2)CN1 (stereo not drawn) — higher, 158 to 160 °C
- CCc1nc2c(C)cc(C)nc2n1C1CCc2cc(-c3ccccc3-c3nnn[nH]3)ccc21 (stereo not drawn) — higher, 181 °C
- CCCCc1nnc2c(Cl)nc3ccccc3n12 — higher, 144 to 146 °C
- CC1=CC(c2ccccc2[N+](=O)[O-])C=C(CN2C(=O)c3ccccc3C2=O)N1 (stereo not drawn) — higher, 137 to 138 °C
- O=[N+]([O-])c1ccc(F)c(-c2ccc(CO)cc2)c1 — higher, 106 to 108 °C
- C=CCNC(=O)N=C(O)c1cc(C(=O)O)ccc1C(=O)O — higher, 230 to 232 °C
- CCOC(=O)Cn1c(=O)n(-c2ccccc2Cl)c(=O)c2c(C)c(C(=O)OCC)c(C)cc21 — higher, 158 to 159 °C
- O=C(NCc1ccc(Cl)cc1)c1cn2c3c(cc(I)cc3c1=O)CC2CO (stereo not drawn) — higher, 222 to 223 °C
- Nc1n[nH]c2cccc(I)c12 — higher, 153 °C
- Cc1nn(C)c(C)c1NC1=NCCO1 — higher, 131 to 132 °C
- O=C1Nc2ccccc2CN1C1CCN(Cc2ccccc2)CC1 — higher, 204 to 206 °C
- CC(=O)c1c(C)nc2c(OCc3c(Cl)ccc(S(=O)(=O)N4CCC[C@H]4C(=O)NCCCNC(=O)c4ccc(C(N)=NO)cc4)c3Cl)cccn12 — higher, 164 to 166 °C
- CS(=O)(=O)c1ccc(/C=C/c2cc(/C=C/c3ccc4cc[nH]c4c3)n[nH]2)cc1 — higher, 260 to 268 °C
- CC(=O)Oc1cc2c(cc1C(C)(C)C)OC(C)(CCOc1ccc(CC3SC(=N)NC3=O)cc1)CC2 (stereo not drawn) — higher, 175 to 178 °C
- Cc1ccc(C)c2c1C[C@@H](O)[C@@H]2Oc1cc(C(=O)N(C)C)cc2c1nc(C)n2C (relative stereo) — higher, 134 °C
- COc1cc(Nc2nc(N3CCOCC3)nc(-n3c(C(F)F)nc4c(OC)cccc43)n2)ncn1 — higher, 256 to 259 °C
- CCCn1c(=O)n2c(-c3cccs3)nnc2c2c1ncn2C — higher, 206 to 207 °C
- Cc1csc2ncc(C(O)CCCCc3ccccc3)n12 (stereo not drawn) — higher, 120 to 121 °C
- Clc1ccc(C(Cn2ccnc2)C2CCCC2)c(Cl)c1 (stereo not drawn) — higher, 97.6 °C
- O=c1ccc(C(c2ccc(Cl)cc2)c2ccc(Cl)cc2)c[nH]1 — higher, 211 to 215 °C
- O=C(Oc1ccccc1)n1c(C(F)(F)F)nc2c([N+](=O)[O-])cc(C(F)(F)F)cc21 — higher, 100 to 103 °C
- O=c1nc(-c2cccc(S(=O)CCCc3ccccc3)n2)sc2ccccc12 (stereo not drawn) — higher, 164 to 166 °C
- Cc1ccc(C(=O)O)c(C2=NC(=O)C(C)(C(C)C)N2)n1 (stereo not drawn) — higher, 139 to 142 °C
- N#Cc1ccc([C@@H]2CN(S(=O)(=O)c3cccc(C(=O)O)c3)C[C@@]23NC(=O)N(c2cc(Cl)cc(Cl)c2)C3=O)cc1 (relative stereo) — higher, 150 °C
- Cn1cc(C(=O)O)c(=O)c2cc(Cl)c(N3CCNCC3)cc21 — higher, 288 °C
- N#Cc1c(Cl)c(Cl)n(O)c1-c1ccc(Cl)cc1 — higher, 156 °C
- O=C(Nc1cccc(Br)n1)Nc1cccc2c1C1CCCCN1C2=O (stereo not drawn) — higher, 218 to 220 °C
- CSC(c1ccc(Cl)cc1)c1ccc(Cl)cc1 — lower, 56 to 57 °C
- N#CN1CCC(c2nn(C(=O)c3ccccc3)c3ccccc23)CC1 — higher, 144 to 146 °C
- Cc1cc2[nH]c(=O)c3cnc(Cl)cc3n2n1 — higher, > 300 °C
- CC(C)C(=O)OCCn1nc(-c2cc(C(C)(C)C)c(O)c(C(C)(C)C)c2)c2cccnc21 — higher, 94 to 96 °C
- Nc1ncc(-c2ccc(F)cc2)cc1[N+](=O)[O-] — higher, 232 °C
- O=C(c1ccc(-c2ncn[nH]2)cc1Cl)N1Cc2cccn2Cc2ccccc21 — higher, 174 to 177 °C
- O=C(c1cccs1)c1cnn2c(-c3cccc([N+](=O)[O-])c3)ccnc12 — higher, 199 to 201 °C
- CNC(=S)N1CCc2c(ncn2C)C1 — higher, 238 °C
- O=Cc1c(C2CC2)nc2ccccc2c1-c1ccc(F)cc1 — higher, 152 °C
- Nc1ccc(Oc2c(NCc3ccccc3)cc(C(=O)O)cc2S(N)(=O)=O)cc1 — higher, 272 °C
- CCCOc1ccc(C2=NN(C(=O)Nc3ccc(OC(F)(F)F)cc3)CC2N(C)C(=O)OC)cc1 (stereo not drawn) — higher, 153 to 155 °C
- O=C(Nc1ccc2cc(CN3CCCC3)cnc2c1F)c1ccc(-c2ccccc2)cc1 — higher, 186 to 188 °C
- CC(C)(OCc1nn(C(=O)c2ccccc2)c2ccccc12)C(=O)O — higher, 132 to 135 °C
- N#CC1=C(C2CCCCCC2)Nc2n[nH]cc2C1c1cccc2nonc12 (stereo not drawn) — higher, 228 °C
- CCCC(N)(CO)CCCc1ccc(Sc2cccc(OCc3ccccc3)c2)cc1Cl (single isomer, unassigned; (+)) — lower, 55 to 57 °C
- COCOc1c(OC)cc(C(S)CS)cc1OC (stereo not drawn) — higher, 84 to 85 °C
- CCCCCCCCCCCCCCN=C=S — higher, 77 to 79 °C
- CCc1nc2c(N)nc3cccnc3c2n1CCCCCC(=O)N1CCOCC1 — higher, 163 to 165 °C
- Cn1nnnc1C(/C=C/[C@@H]1C[C@@H](O)CC(=O)O1)=C(c1ccc(F)cc1)c1ccc(F)cc1 — higher, 104 to 106 °C
- Nc1nc2c(c(N3CCN(CCc4ccccc4)CC3)n1)Cc1ccccc1-2 — higher, 122 to 124 °C
- Nc1nc(Oc2ccc(O)cc2)nc2nc(-c3ccco3)nn12 — higher, 292 to 294 °C
- CC(C)(C)C(=O)CN1C(=O)C(NC(=O)Nc2cccc3ccccc23)CN(C2CCCCC2)c2ccccc21 (stereo not drawn) — higher, 200 to 203 °C
